Experiments:
CD4 T-cell = experiment: Example 7: CD4 T-cell counts in blood of HIV-1 patients; format: in vivo, human; details: certain patients; increase from 350; transdermal DMF
Protocol: (§1) Each patch was applied for a period of 12 hours, either once per week over a period of 12 weeks, or twice per week over a period of 6 weeks.
(§2) Blood tests in certain patients indicated an increase in CD4 T-cell counts from 350 to 1000, and a rapid reduction of PCR (Polymerase chain reaction) (viral load) of 120,000 to 500/ml within three weeks with as little as three treatments. […] The PCR test conducted was the Roche amplicor HIV monitor. A viral load of <500/ml plasma is considered to be undetectable.
(§3) A daily virological serology workout to establish total body virus count and to monitor improvements in the immune status of the patient (CD4+ T-helper cells) and prognostic factors were also conducted. The serology workout was based on p24 antigen and quantitative PCR or, optionally, by other methods. A weekly determination of CD4 counts and […] was also conducted specifically to monitor improvements in the patient's immune status and prognosis. All clinical and laboratory data were fed into a centralized data system to facilitate rapid response to any detrimental change so as to curtail treatment to maximize clinical effect and minimize potential side effects.

HIV-1 [1] = experiment: Example 7: HIV-1 viral load by quantitative PCR (Roche amplicor HIV monitor); format: in vivo, human; details: certain patients; reduction from 120,000; within three weeks, as little as three treatments
Protocol: as §1, §2, §3

[2] = test system: virus particles, e.g. the capsid; reverse transcriptase; protease; experiment: In vitro tests of DMF on virus particles
[3] = Example 8 pilot study: peak plasma DMF level (GC/MS); format: in vivo; details: human, topical or ocular
Protocol: (§4) A pilot study was conducted to evaluate the efficacy of transdermal DMF in the treatment of patients infected with HIV. Informed consent was obtained from each patient. Seropositive status was verified by Western blot using a commercial kit for detecting antibodies to p24 (Abbott Diagnostics) and the presence of HIV-1 was documented by quantitative PCR using a commercial kit (Roche Amplicor).
Operational parameters were as follows: GC temperature program: 60° C. for 1 min. followed by a temperature gradient of 9.4° C./min. for 20 min. MS ionization method: electron impact; mass range: 40-80 mass units; 1 scan/sec; peak threshold: 3 counts/sec; background mass: 69 mass units. A stock solution of dimethylacetamide was used as an internal standard. All samples were extracted with an organic solvent containing the internal standard, allowed to precipitate for 30 min. in a refrigerator, and centrifuged at 3000×g for 5 min. before transfer to GC vials for injection.
(§5) Dermal patches 9 cm in diameter were used within 12 hours of manufacture. […] The patches were visually inspected to verify the absence of leakage and were weighed on an analytical balance to verify less than 10% deviation from a total mass of 8.153 g. The patches were applied to the skin of the forearm and secured with Elastoplast™ bandages. Either one or two patches were used for the initial dose, as determined from the predicted skin transfer rate of 9.4 mg/cm^2 /hr and the patient's body weight.
A staged dose of DMF was used, with two-hourly blood and urine sampling to determine peak plasma DMF levels. […] Initial evaluation included daily determination of: […]

CD4+ T cell = experiment: Example 8 pilot study: CD4+ T cell count (Coulter analysis); format: in vivo, human
Protocol: as §4, §5
(§6) A staged dose of DMF was used, with two-hourly blood and urine sampling to determine peak plasma DMF levels. […] Initial evaluation included daily determination of:
c) Coulter analysis of CD4+ and CD8+ counts and CD4/CD8 ratio;

HIV-1 [4] = experiment: Example 8 pilot study: HIV-1 load by quantitative PCR (Roche Amplicor); format: in vivo, human
Protocol: as §4, §5, §6
d) Quantitative estimates of HIV-1 load by PCR (Roche Amplicor) and analysis of antibody to p24 (Abbott);

HIV = experiment: Example 8 pilot study: clinical condition and Karnofsky performance scale in HIV infected patients; format: in vivo, human
Protocol: as §4, §5, §6
b) clinical checklist and Karnofsky score;
(See Karnofsky et al., […], Cancer 1:634-656). […] Additional anti-microbial therapy for secondary infections was rarely needed. […] Clinical improvement correlated well with disease status as assessed by viral load and CD4+ T cell count.

[5] = Example 8 pilot study: adverse effects and liver enzymes; format: in vivo, human
Protocol: as §4, §5, §6
b) serum urea, creatinine, glucose, sodium, potassium, ALT, AST, alkaline phosphatase and total bilirubin;

[6] = Absorption of liquid DMF through human skin; format: in vivo; details: two patches of diameter 9 cm, 127 cm^2 skin
Protocol: For transdermal administration of a polar compound, the rate of absorption is determined by the skin of the subject. […] Accordingly, the desired rate of absorption may be achieved by controlling the surface area of the skin exposed to the drug, as by determining the area of each patch and the number of patches applied to the skin.

[7] = Physicochemical properties of DMF; details: gel patches
transformed cells = details: in vitro, certain transformed cells; cited from earlier work
malignant cells = details: cells treated in vitro, then inoculated into nude mice; cited from earlier work
human cancer xenografts = details: intraperitoneal injection, nude mice; cited from earlier work
[8] = water, alcohols and some hydrocarbons; cited from earlier work

CN(C)C=O [DMF, N,N'-dimethylformamide]
CD4 T-cell count (CD4 T-cell): 1000 | PCR viral load (HIV-1 [1]): 500 mL⁻¹ | effect on virus particles ([2]; in vitro): it appears that the solvent properties of DMF dissolve the virus particles, e.g. the capsid | apparent mode of action ([2]; it appears as if): acts as at least one of a reverse transcriptase inhibitor and a protease inhibitor | Cmax ([3]; 3750 mg, Patient 6, two patches once weekly, 6 hours, average weekly dose 3.75 g): 67 µg/mL | Cmax ([3]; 4600 mg, Patient 7, 1 patch, 4 hours, average weekly dose 4.60 g): 100 µg/mL | Cmax ([3]; 6110 mg, Patient 3, two patches once a week, 8 hours, average weekly dose 6.11 g): 75 µg/mL | Cmax ([3]; 6240 mg, Patient 8, two patches once weekly, 8 hours, average weekly dose 6.24 g): 130 µg/mL | Cmax ([3]; 7120 mg, Patient 2, one patch per week, 8 hours, average weekly dose 7.12 g): 125 µg/mL | Cmax ([3]; 7330 mg, Patient 4, two patches once weekly, 8 hours, average weekly dose 7.33 g): 90 µg/mL | Cmax ([3]; 8250 mg, Patient 5, two patches weekly, 8 hours, average weekly dose 8.25 g): 110 µg/mL | Cmax ([3]; 8970 mg, Patient 1, two patches once a week, 8 hours, average weekly dose 8.97 g): 121 µg/mL | CD4+ T cell count (CD4+ T cell; Patient 1, after 7 weeks, from 39): 138 cells/μl | CD4+ T cell count (CD4+ T cell; Patient 2, after 9 weeks, from 460): 720 cells/μl | CD4+ T cell count (CD4+ T cell; Patient 3, after 9 weeks, from 140): 640 cells/μl | CD4+ T cell count (CD4+ T cell; Patient 4, after 18 weeks, from 249): 450 cells/μl | CD4+ cell count (CD4+ T cell; Patient 5, after 19 weeks, from 260): 450 cells/μl | CD4+ T cell count (CD4+ T cell; Patient 6, after 5 weeks, from 354): 396 cells/μl | CD4+ T cell count (CD4+ T cell; Patient 7, after 9 treatments, initial 29): 35 cells/μl | CD4+ T cell count (CD4+ T cell; Patient 7, after the first treatment, initial 29): 14 cells/μl | CD4+ T cell count (CD4+ T cell; Patient 8, after 8 weeks, from 200): 240 cells/μl | increase in CD4+ T cell counts (CD4+ T cell; after 42 days, Gompertz curve fit, seven out of eight patients): 73.4% | PCR-measured viral load (HIV-1 [4]; Patient 1, after 7 weeks, from 222,000): 160,000 copies/ml | PCR-measured viral load (HIV-1 [4]; Patient 2, after 9 weeks, from 29,000): 13,000 copies/ml | PCR-measured viral load (HIV-1 [4]; Patient 3, after 9 weeks, from 250,000): 50,000 copies/ml | PCR-measured viral load (HIV-1 [4]; Patient 4, after 18 weeks, from 13,000): 4,000 copies/ml | PCR-measured viral load (HIV-1 [4]; Patient 5, after 19 weeks, from 120,000): 24,000 copies/ml | PCR-measured viral load (HIV-1 [4]; Patient 6, after 5 weeks, from 156,000): 13,000 copies/ml | PCR-measured viral load (HIV-1 [4]; Patient 7, after 9 treatments, initial 1,156,000): 9,000 copies/ml | PCR-measured viral load (HIV-1 [4]; Patient 8, after 8 weeks, from 1,200,000): 250,000 copies/ml | decline in PCR-measured viral load (HIV-1 [4]; after 42 days, Gompertz curve fit, five out of eight patients): 88.8% | need for additional anti-microbial therapy for secondary infections (HIV; 8 patients): rarely needed | neurological symptoms and Herpes viral infections (HIV; 8 patients): Improvement in neurological symptoms and Herpes viral infections was remarkable | general condition, Karnofsky performance scale (HIV; 8 patients, before and after treatment (FIG. 4)): every patient showed improved general condition | clinical outcome (HIV; Patient 1, after 7 weeks): appetite had improved, the respiratory difficulties had resolved, the patient appeared clinically well and started exercising again | clinical outcome (HIV; Patient 2, after 9 weeks): herpetic sores had resolved, the limb pains had disappeared and the patient appeared clinically well | clinical outcome (HIV; Patient 3, after 10 weeks): the patient was clinically well and no longer complained of pain in the limbs | clinical outcome (HIV; Patient 4, after 18 weeks): The patient appeared clinically well and had no active medical complaints | clinical outcome (HIV; Patient 5, after 19 weeks): The secondary infections had resolved and the patient appeared clinically well | clinical outcome (HIV; Patient 6, after 5 weeks): The patient was clinically well | clinical outcome (HIV; Patient 7, after 9 treatments): The patient felt well and had returned to full-time employment | clinical outcome (HIV; Patient 8, after 8 weeks): the Herpes lesions had entirely resolved | clinical improvement (HIV; after 2-3 weeks of treatment): Virtually all patients showed clinical improvement | general fatigue and appetite (HIV; within the first 14 days of DMF treatment): marked improvement in general fatigue and in appetite | maximum elevation of liver enzymes ([5]; four patients with transient elevation): three | local skin irritation at the area of application ([5]; most patients, after removal of the patches): mild local skin irritation | appearance of skin at the application site ([5]; most patients, probably due to intense hydration under the patch): maculopapular appearance | nausea ([5]; most patients, usually on day three after treatment): mild transient nausea | patients with transient elevation of liver enzymes ([5]; of 8 patients, in most cases returned to pre-treatment levels before next dose): Four | blistering ([5]; one case, resolved within 24 hours): slight blistering | nausea ([5]; one patient): moderate transient nausea | absorption rate [6]: about 1.2 g of DMF per hour | evaporation [7]: evaporates rapidly | differentiation (transformed cells): in vitro differentiating agent | tumorigenicity (malignant cells): reduce their tumorigenicity | growth of human cancer xenografts (human cancer xenografts): slow the growth of certain human cancer xenografts | miscibility [8]: freely miscible with water, alcohols and some hydrocarbons
